Source: ChEMBL document CHEMBL1201862, “PubChem BioAssay data set” (2004)
Calls of active or inactive are those of the source.

Key:
[1] = target: T1, Tyrosine-protein phosphatase non-receptor type 7 (Homo sapiens, UniProt P35236); assay: HePTP tyrosine phosphatase activity blockers – biochemical, absorbance, leukemia target, primary screen (AID 521); type: functional
T1 sequence (P35236 whole entry): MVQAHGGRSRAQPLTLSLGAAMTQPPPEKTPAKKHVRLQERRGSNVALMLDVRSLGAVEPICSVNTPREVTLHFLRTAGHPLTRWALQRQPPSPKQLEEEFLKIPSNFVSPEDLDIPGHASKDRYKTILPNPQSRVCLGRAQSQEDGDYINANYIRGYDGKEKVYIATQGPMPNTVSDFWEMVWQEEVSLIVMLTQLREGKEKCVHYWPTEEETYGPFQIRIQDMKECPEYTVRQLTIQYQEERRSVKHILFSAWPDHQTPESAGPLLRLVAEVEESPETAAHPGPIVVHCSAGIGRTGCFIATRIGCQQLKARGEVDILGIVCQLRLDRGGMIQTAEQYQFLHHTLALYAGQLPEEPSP

[2] = Luminescence Cell-Based Dose Confirmation HTS to Identify Activators of 5'UTR Stem-Loop Driven Alpha-Synuclein mRNA Translation in H4 Neuroglioblastoma Cells. [Related pubchem assays: 1829 (Project Summary), 1814 (Primary HTS)]; type: functional
[3] = Luminescence Cell-Based Dose Response to Identify Activators of Luciferase Translation or Activity in H4-C Neuroglioblastoma Cells. [Related pubchem assays: 1829 (Project Summary), 1814 (Primary HTS)]; type: functional
[4] = Luminescence Cell-Based Dose Confirmation to Identify Activators of 5'UTR Stem-Loop Driven Alpha-Synuclein mRNA Translation in H4 Neuroglioblastoma Cells. [Related pubchem assays: 1829 (Project Summary), 1814 (Primary HTS)]; type: functional
[5] = Luminescence Cell-Based Dose Response to Identify Activators of 5'UTR Stem-Loop Driven Prion Protein mRNA Translation in H4-C Neuroglioblastoma Cells. [Related pubchem assays: 1829 (Project Summary), 1814 (Primary HTS)]; type: functional
[6] = Luminescence Cell-Based Dose Response HTS to Identify Activators of Luciferase Translation or Activity in H4 […] Cells. [Related pubchem assays: 1829 (Project Summary), 1814 (Primary HTS)]; type: functional
[7] = A Cell Based Secondary Assay To Explore Cytotoxicity of Compounds that Sensitize Mycobacterium Tuberculosis to Beta-Lactam Antibiotics.; type: functional
[8] = target: SUMO E1/E2 (Homo sapiens, UniProt P63279+Q9UBE0+Q9UBT2); assay: SAR analysis of SUMOylation using HTRF in an in-Vitro dose response assay. [Related pubchem assays (depositor defined):AID2006, AID2011, AID2018, AID2069, AID2658]; type: functional
[9] = target: T2, Estrogen receptor beta (Homo sapiens, UniProt Q92731); assay: blockers of SRC-3 recruitment to ERβ – biochemical, ELISA, streptavidin-HRP readout, orthogonal assay, confirmation (AID 1060)
[10] = target: Genome polyprotein (Hepatitis C virus, UniProt Q2Q167); assay: disruption of hepatitis C core self-association – biochemical, TR-FRET, dose response (AID 2159); design: species or system Hepacivirus hominis;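 further: blocks dimerization of HCV core protein measured by TR-FRET between tagged core106 pairs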
[11] = target: Bcl-2-like protein 1 (Homo sapiens, UniProt Q07817); assay: blockers of BCLXL peptide binding – biochemical, fluorescence polarization, 1536-well, selectivity assay for MCL1 inhibitor project, dose response (AID 2218)
[12] = target: T3, Voltage-gated N-type calcium channel alpha-1B subunit/Amyloid beta A4 precursor protein-binding family A member 1 (Homo sapiens, UniProt Q00975+Q02410); assay: disruptors of Mint-PDZ/N-type channel peptide interaction – biochemical, HTRF, set 2, SAR follow-up (AID 434980); type: functional
[13] = target: Bcl-2-like protein 10 (Homo sapiens, UniProt Q9HD36); assay: Bcl-B/TR3 peptide binding disruption – biochemical, fluorescence polarization, FITC-TR3 peptide, selectivity assay for Bfl-1 inhibitor project, primary screen (AID 748);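 further: fluorescence polarization from a fluorescein-labelled TR3 peptide binding purified Bcl-B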
[14] = target: T4, Induced myeloid leukemia cell differentiation protein Mcl-1 (Homo sapiens, UniProt Q07820); assay: blockers of MCL1 binding to BIM peptide – biochemical, fluorescence polarization, BIM-BH3 peptide, 1536-well, dose response (AID 2217)
[15] = target: T2, Estrogen receptor beta
[16] = target: T3, Voltage-gated N-type calcium channel alpha-1B subunit/Amyloid beta A4 precursor protein-binding family A member 1; assay: disruptors of Mint-PDZ/N-type channel peptide interaction – biochemical, HTRF, SAR follow-up (AID 2489); type: functional
[17] = target: T4, Induced myeloid leukemia cell differentiation protein Mcl-1; type: functional
[18] = A High Throughput Confirmatory Assay used to Identify Novel Compounds that Inhibit Mycobacterium Tuberculosis in the absence of Glycerol.; type: functional
[19] = Luminescence Cell-Based Dose Response HTS to Identify Inhibitors of 5'UTR Stem-Loop Driven Prion Protein mRNA Translation in H4 Neuroglioblastoma Cells. [Related pubchem assays: 1827 (Project Summary), 1813 (Primary HTS)]; type: functional
[20] = microbe, parasite or virus in culture; type: functional; details: Mycobacterium tuberculosis
[21] = luciferase reporter signal suppression in cells – H4 neuroglioma cells, luminescence, dose response (AID 1990); type: functional, cell-based
[22] = alpha-synuclein stem-loop luciferase translation blockers – H4 neuroglioma cells, luminescence, confirmation (AID 1988); type: functional, cell-based
[23] = target: T5, Microphthalmia-associated transcription factor (Homo sapiens, UniProt O75030); assay: reducers of TRPM1 reporter luminescence, concentration series – cell-based, SK-MEL-5, cherry-picked, set 3, MITF inhibitor project, dose response (AID 493073); type: functional;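 further: SK-MEL-5 melanoma cells with luciferase driven by the MITF target TRPM1 promoter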
T5 sequence (O75030 whole entry): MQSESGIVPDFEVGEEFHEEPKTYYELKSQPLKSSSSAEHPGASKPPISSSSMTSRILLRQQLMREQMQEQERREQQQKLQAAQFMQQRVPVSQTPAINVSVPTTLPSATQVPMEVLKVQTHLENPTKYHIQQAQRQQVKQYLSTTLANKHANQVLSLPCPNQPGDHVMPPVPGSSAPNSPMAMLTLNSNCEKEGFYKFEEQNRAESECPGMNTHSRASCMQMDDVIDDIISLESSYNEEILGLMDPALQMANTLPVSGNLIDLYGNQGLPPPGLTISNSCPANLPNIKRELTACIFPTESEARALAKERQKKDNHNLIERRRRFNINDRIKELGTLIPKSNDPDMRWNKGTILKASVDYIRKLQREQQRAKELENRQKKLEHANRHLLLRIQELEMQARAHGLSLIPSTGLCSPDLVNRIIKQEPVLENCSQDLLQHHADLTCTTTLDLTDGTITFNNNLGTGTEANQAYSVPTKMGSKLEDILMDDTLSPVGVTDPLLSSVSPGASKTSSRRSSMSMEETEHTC

[24] = target: Prothrombin (Homo sapiens, UniProt P00734); assay: Thrombin 1536 HTS Dose Response Confirmation. [Related pubchem assays: 1046 (Thrombin 1536 HTS; hits were confirmed in this assay)]; type: functional
[25] = target: T6, Heat shock factor protein 1 (Mus musculus, UniProt P38532); assay: decrease of HSF1-responsive luciferase luminescence – cell-based, NIH3T3, dose retest, confirmation (AID 2382); type: functional;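 further: NIH3T3 fibroblasts with HSF1-driven luciferase reporter stressed by proteasome inhibitor MG132; luminescence from HSF1-driven luciferase expression after 8 hours of MG132 stress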
T6 sequence (P38532 whole entry): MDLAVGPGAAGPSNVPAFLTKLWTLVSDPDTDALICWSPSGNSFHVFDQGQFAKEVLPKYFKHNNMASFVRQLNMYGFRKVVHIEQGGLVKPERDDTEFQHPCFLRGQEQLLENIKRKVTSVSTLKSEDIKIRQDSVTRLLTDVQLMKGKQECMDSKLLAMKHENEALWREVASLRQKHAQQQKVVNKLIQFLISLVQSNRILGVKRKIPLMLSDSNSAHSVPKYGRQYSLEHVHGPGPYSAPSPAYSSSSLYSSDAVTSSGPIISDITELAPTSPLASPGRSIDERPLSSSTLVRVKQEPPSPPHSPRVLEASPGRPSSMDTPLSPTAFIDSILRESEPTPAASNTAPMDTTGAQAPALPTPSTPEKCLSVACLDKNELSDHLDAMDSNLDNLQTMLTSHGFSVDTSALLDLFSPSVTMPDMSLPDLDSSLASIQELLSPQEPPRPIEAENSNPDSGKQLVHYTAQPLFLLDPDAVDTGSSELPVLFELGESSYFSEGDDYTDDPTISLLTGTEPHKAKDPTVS

[26] = target: Heat shock protein HSP 90-alpha (Homo sapiens, UniProt P07900); assay: Luminescence-based dose response biochemical high throughput screening assay for inhibitors of the Heat Shock Protein 90 (HSP90). [Related pubchem assays: 1831 (Summary AID.), 1846 (Confirmation screen.), 1789 (Primary screen.)]
[27] = target: Ion channel NompC (Danio rerio, UniProt Q7T1G6); assay: Fluorescence counterscreen assay for TRPML3 agonists: dose response cell-based high-throughput screening assay to identify agonists of the transient receptor potential channel N1 (TRPN1). [Related pubchem assays: 1526, 1424, 1448 ]; type: functional
[28] = target: Mucolipin-3 (Homo sapiens, UniProt Q8TDD5); assay: Dose response cell-based high-throughput screening assay for agonists of the transient receptor potential channel ML3 (TRPML3). [Related pubchem assays: 1526, 1424, 1448 ]; type: functional

T4 sequence (Q07820 whole entry): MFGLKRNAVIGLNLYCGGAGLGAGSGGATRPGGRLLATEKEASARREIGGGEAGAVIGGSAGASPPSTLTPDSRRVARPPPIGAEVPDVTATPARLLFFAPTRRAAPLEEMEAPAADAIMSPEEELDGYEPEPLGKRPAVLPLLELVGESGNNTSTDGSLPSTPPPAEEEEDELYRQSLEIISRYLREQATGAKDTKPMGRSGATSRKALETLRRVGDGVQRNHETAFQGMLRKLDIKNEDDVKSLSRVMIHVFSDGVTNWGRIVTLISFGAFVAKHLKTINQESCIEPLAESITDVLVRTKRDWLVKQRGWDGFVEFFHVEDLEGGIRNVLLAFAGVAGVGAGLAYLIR
T3 sequence (Q00975 whole entry): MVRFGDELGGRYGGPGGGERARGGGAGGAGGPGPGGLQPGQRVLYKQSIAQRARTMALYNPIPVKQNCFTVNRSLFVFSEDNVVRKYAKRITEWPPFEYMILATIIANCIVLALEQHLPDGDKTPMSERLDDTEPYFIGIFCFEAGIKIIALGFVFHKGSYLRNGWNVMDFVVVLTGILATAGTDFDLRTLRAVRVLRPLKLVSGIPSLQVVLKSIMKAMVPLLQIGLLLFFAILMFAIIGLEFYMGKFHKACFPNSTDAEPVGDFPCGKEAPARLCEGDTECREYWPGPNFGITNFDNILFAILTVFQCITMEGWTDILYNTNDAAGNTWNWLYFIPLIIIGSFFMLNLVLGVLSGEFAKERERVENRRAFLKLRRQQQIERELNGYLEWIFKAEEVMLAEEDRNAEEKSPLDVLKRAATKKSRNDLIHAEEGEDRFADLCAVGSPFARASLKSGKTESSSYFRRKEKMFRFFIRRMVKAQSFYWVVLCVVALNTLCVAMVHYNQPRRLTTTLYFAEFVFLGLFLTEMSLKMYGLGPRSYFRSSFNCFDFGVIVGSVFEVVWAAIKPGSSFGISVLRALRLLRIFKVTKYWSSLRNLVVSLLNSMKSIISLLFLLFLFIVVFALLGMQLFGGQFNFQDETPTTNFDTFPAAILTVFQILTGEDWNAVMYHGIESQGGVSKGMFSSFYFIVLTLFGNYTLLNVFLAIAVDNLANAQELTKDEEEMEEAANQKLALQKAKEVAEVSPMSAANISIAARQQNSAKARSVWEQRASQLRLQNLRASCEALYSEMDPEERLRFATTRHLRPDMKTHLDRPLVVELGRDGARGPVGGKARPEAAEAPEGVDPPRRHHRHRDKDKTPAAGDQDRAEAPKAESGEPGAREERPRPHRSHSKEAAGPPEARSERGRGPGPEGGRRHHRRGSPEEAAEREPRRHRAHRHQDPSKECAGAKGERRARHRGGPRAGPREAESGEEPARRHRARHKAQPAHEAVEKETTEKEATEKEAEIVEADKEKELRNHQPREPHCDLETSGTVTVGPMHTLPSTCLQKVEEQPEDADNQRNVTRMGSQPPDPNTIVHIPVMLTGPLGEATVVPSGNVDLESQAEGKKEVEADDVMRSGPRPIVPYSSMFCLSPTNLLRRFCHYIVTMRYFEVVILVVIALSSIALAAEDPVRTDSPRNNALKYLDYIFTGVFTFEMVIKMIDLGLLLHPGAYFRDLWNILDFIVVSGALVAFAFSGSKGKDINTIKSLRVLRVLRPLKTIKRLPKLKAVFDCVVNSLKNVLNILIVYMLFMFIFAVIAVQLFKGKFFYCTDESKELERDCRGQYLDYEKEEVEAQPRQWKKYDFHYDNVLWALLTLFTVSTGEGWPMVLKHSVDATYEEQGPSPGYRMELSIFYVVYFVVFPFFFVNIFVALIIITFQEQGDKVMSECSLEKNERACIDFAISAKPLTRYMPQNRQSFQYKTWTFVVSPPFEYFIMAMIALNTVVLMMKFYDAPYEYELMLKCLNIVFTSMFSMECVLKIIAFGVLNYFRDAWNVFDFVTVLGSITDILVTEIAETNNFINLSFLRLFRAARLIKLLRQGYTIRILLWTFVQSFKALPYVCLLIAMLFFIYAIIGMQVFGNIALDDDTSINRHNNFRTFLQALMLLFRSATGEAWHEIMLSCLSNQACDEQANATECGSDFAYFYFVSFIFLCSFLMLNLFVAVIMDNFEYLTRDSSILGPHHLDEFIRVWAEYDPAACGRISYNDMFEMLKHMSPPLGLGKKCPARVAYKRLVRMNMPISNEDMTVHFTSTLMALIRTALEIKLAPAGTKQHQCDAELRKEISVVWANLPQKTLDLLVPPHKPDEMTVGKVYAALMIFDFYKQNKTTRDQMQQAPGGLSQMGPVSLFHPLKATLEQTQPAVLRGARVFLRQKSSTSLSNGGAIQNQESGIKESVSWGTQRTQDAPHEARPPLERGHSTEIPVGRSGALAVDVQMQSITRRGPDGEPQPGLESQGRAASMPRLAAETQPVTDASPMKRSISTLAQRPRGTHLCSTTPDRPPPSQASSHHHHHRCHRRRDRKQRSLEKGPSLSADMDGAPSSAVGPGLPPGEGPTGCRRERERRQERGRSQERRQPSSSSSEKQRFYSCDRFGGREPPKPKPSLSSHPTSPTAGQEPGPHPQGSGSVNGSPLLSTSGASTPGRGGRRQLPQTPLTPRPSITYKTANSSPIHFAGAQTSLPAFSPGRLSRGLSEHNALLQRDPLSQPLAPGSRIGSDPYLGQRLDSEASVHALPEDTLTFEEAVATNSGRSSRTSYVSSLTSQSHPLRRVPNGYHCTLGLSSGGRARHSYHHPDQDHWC
T3 sequence (Q02410 whole entry): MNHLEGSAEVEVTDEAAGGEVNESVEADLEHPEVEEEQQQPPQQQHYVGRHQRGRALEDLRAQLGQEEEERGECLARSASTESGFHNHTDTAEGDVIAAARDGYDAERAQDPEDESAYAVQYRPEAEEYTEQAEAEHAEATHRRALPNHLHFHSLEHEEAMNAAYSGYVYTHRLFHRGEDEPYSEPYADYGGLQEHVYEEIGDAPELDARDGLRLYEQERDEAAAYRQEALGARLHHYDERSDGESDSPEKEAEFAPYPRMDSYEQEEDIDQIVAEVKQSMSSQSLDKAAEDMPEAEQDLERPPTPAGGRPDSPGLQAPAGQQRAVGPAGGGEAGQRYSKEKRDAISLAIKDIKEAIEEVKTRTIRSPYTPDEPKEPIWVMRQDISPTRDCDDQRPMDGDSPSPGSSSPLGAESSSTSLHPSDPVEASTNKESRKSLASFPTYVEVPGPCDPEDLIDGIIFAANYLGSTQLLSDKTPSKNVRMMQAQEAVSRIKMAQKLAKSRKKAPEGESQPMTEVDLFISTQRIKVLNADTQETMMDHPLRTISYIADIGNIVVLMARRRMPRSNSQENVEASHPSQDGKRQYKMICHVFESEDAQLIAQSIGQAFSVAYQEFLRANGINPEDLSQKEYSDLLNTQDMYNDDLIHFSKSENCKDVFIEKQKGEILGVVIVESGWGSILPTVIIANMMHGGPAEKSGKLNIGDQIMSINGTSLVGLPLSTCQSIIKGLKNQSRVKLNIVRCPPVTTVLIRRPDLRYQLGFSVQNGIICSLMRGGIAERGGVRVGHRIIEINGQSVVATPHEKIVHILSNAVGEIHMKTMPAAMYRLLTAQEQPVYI
T2 sequence (Q92731 whole entry): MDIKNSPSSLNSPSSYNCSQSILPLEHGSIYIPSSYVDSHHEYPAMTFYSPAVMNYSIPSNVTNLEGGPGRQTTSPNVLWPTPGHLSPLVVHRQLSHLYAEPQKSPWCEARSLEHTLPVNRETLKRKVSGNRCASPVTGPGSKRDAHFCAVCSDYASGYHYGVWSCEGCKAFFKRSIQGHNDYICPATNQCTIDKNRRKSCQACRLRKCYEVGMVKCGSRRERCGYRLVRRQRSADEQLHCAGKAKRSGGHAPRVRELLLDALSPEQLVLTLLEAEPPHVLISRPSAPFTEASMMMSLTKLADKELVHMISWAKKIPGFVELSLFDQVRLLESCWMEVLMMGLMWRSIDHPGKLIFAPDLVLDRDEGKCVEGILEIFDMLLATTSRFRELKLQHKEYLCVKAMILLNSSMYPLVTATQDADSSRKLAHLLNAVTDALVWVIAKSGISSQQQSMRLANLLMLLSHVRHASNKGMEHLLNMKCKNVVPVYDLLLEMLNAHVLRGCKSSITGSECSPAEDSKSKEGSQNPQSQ
Bcl-2-like protein 1, sequence (Q07817 whole entry): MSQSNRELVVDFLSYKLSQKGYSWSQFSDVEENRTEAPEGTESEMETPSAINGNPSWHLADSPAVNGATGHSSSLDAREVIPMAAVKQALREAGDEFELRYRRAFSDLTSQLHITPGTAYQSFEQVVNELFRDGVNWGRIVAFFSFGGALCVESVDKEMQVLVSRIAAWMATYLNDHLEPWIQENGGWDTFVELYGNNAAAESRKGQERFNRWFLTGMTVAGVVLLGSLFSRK
Genome polyprotein, sequence (Q2Q167 whole entry): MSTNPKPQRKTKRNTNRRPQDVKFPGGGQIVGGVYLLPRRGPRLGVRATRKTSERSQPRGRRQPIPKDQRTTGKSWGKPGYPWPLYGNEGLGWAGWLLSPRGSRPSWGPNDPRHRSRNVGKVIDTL
Bcl-2-like protein 10, sequence (Q9HD36 whole entry): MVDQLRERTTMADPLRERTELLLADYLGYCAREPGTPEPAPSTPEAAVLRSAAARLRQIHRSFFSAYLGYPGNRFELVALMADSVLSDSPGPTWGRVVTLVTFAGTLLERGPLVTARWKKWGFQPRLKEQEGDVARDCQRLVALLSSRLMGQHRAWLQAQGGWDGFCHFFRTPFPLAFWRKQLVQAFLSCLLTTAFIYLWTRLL

**Q.** Which IC50 [1] does the source give for `O=C(Nc1cc(C(F)(F)F)ccc1Cl)C1CCN(c2nnc(-n3cccc3)s2)CC1` here?
**A.** The IC50 was > 100 µM (not active).

**Q.** Which results are given for `O=C(NC1CCCCCC1)c1ccc(CN2CCOCC2)cc1`?
**A.** EC50 [2]: < 0.1 µM (active); EC50 [3]: 0.67 µM (active); EC50 [4]: 0.406 µM (active); EC50 [5]: 0.889 µM (active); EC50 [6]: 17.5 µM (active)

**Q.** For `O=C(OCC(=O)N1CCN(C(=O)c2ccco2)CC1)c1cc(-c2ccco2)nc2ccccc12`, which CC50 [7] is on record?
**A.** Its CC50 is > 40 µM (active).

**Q.** What about the IC50 [8] of the same molecule?
**A.** Its IC50 is 1.93 µM (active).

**Q.** And the IC50 [9]?
**A.** Its IC50 is > 50 µM (not active).

**Q.** What about the IC50 [10] of the same molecule?
**A.** Its IC50 is > 49.8 µM (not active).

**Q.** What about the IC50 [11] of the same molecule?
**A.** Its IC50 is > 109 µM (not active).

**Q.** And the IC50 [12]?
**A.** The IC50 was 2.86 µM (active).

**Q.** What about the IC50 [13] of the same molecule?
**A.** Its IC50 is 12 µM (active).

**Q.** And the IC50 [14]?
**A.** The IC50 was 6.8 µM (active).

**Q.** What about the IC50 [15] of the same molecule?
**A.** The IC50 was < 1.56 µM (active).

**Q.** And the IC50 [16]?
**A.** The IC50 was 5.92 µM (active).

**Q.** And the IC50 [17]?
**A.** Its IC50 is 3.96 µM (active).

**Q.** With `CC(C)CNc1nnnc2c1sc1nc(N3CCOCC3)c3c(c12)CC(C)(C)SC3` as the molecule, how does the IC50 [18] read?
**A.** The IC50 was > 100 µM (active).

**Q.** What about the EC50 [19] of the same molecule?
**A.** Its EC50 is 35.1 µM (active).

**Q.** And the CC50 [20]?
**A.** Its CC50 is > 40 µM (active).

**Q.** And the EC50 [21]?
**A.** Its EC50 is 19.2 µM (active).

**Q.** What about the EC50 [22] of the same molecule?
**A.** Its EC50 is 14.3 µM (active).

**Q.** What does the source list for `Cc1ccc2nc(NC(=O)CSCC(=O)OCC(=O)c3ccccc3)sc2c1`?
**A.** AC50 [23]: 5.78 µM (active); IC50 [24]: 0.0897 µM (active); EC50 [25]: 1.05 µM (active); IC50 [26]: 5.17 µM (active)

**Q.** Which EC50 [27] does the source give for `COc1ccc(C(C(=O)NC2CCCC2)N(Cc2ccccc2)C(=O)c2nsc(Cl)c2Cl)cc1` (stereo not drawn) here?
**A.** Its EC50 is > 29.9 µM (not active).

**Q.** And the EC50 [28]?
**A.** Its EC50 is > 29.9 µM (not active).
